Laboratory results from ChEMBL document CHEMBL1208675, “Validated QSAR analysis of some diaryl substituted pyrazoles as CCR2 inhibitors by various linear and nonlinear multivariate chemometrics methods” (Eur J Med Chem, 2010).

target: C-C chemokine receptor type 2 (Homo sapiens, UniProt P41597); experiment: Inhibition of CCR2
Sequence (P41597 whole entry): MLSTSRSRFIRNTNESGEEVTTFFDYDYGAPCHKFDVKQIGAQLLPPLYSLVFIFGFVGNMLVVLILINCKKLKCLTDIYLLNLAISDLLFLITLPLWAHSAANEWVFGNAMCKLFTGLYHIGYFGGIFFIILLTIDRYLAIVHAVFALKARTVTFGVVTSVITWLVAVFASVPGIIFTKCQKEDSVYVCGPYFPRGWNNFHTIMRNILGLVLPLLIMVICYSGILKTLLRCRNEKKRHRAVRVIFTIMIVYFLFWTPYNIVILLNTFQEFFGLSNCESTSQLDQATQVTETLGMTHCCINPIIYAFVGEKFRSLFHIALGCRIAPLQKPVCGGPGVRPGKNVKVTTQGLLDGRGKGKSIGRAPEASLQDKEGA

SMILES | IC50 [nM]
COC(=O)[C@H](Cc1cnc[nH]1)NC(=O)CCc1cc(-c2cc(Cl)cc(Cl)c2)nn1-c1ccc2ccccc2c1 | 2840
CN(C)CCCCNC(=O)CCc1cc(-c2cc(Cl)cc(Cl)c2)nn1-c1ccc2ccccc2c1 | 1800
CCN(CC)CCCCNC(=O)CCc1cc(-c2cc(Cl)cc(Cl)c2)nn1-c1ccc2ccccc2c1 | 1220
O=C(CCc1cc(-c2cc(Cl)cc(Cl)c2)nn1-c1ccc2ccccc2c1)NCCCc1ccc2c(n1)NCCC2 | 9330
CCN(CC)CCCC(C)NC(=O)CCCc1cc(-c2cc(Cl)cc(Cl)c2)nn1-c1ccc2ccccc2c1 (centres undefined) | 6470

The next molecules have a lower IC50 than those just listed; values first:

IC50 [nM] | SMILES
1120 | O=C(CCc1cc(-c2cc(Cl)cc(Cl)c2)nn1-c1ccc2ccccc2c1)NCCCc1ccncc1
108 | CCN(CC)C(C)CCCNC(=O)CCc1cc(-c2cc(Cl)cc(Cl)c2)nn1-c1ccc2ccccc2c1 (centres undefined)
52 | CCCCC(CCCN(CC)CC)NC(=O)CCOc1cc(-c2cc(Cl)cc(Cl)c2)nn1-c1ccc2ccccc2c1 (centres undefined)
43 | COC(=O)[C@H](CCCN=C(N)N)NC(=O)CCNCc1cc(-c2cc(Cl)cc(Cl)c2)nn1-c1ccc2ccccc2c1
